What was measured:
[1] = Stability test of QC samples; type: physicochemical, rat
[2] = Pharmacokinetics in rat plasma; type: in vivo, Wistar rats; settings: for AUC(0-t) / AUC(0-inf) / CL/F / Cmax / MRT last / MRT inf / half-life / Tmax: Wistar, rat, plasma, po, 100 mg/kg; for AUC(0-t): AUC0-t; for AUC(0-inf): AUC0-∞; for CL/F: CLz/F; for MRT last: MRT0-t; for MRT inf: MRT0-∞
[3] = Store at 4 °C for 24 h, high concentration QC sample in rat plasma
[4] = Store at 4 °C for 24 h, low concentration QC sample in rat plasma
[5] = Store at 4 °C for 24 h, medium concentration QC sample in rat plasma
[6] = Store at room temperature for 12 h, high concentration QC sample in rat plasma
[7] = Store at room temperature for 12 h, low concentration QC sample in rat plasma
[8] = Store at room temperature for 12 h, medium concentration QC sample in rat plasma
[9] = Store at −20 °C for 20 days, high concentration QC sample in rat plasma
[10] = Store at −20 °C for 20 days, low concentration QC sample in rat plasma
[11] = Store at −20 °C for 20 days, medium concentration QC sample in rat plasma
[12] = Three freeze-thaw cycles, high concentration QC sample in rat plasma
[13] = Three freeze-thaw cycles, low concentration QC sample in rat plasma
[14] = Three freeze-thaw cycles, medium concentration QC sample in rat plasma
[15] = FS-C: normal (blank) rats, oral FS 100 mg kg^−1, n = 6
[16] = FT-C: normal (blank) rats, oral FT 100 mg kg^−1, n = 6
[17] = control group, after oral administration of FS or FT

Compound | Stability, Accuracy (RE, %) [1, 3] [%] | Stability, Accuracy (RE, %) [1, 4] [%] | Stability, Accuracy (RE, %) [1, 5] [%] | Stability, Accuracy (RE, %) [1, 6] [%] | Stability, Accuracy (RE, %) [1, 7] [%] | Stability, Accuracy (RE, %) [1, 8] [%] | Stability, Accuracy (RE, %) [1, 9] [%] | Stability, Accuracy (RE, %) [1, 10] [%] | Stability, Accuracy (RE, %) [1, 11] [%] | Stability, Accuracy (RE, %) [1, 12] [%] | Stability, Accuracy (RE, %) [1, 13] [%] | Stability, Accuracy (RE, %) [1, 14] [%] | AUC(0-t) [2, 16] [ng·h/mL] | AUC(0-inf) [2, 16] [ng·h/mL] | CL/F [2, 16] [mL/min/kg] | Cmax [2, 16] [ng/mL] | MRT last [2, 16] [h] | MRT inf [2, 16] [h] | Tmax [2, 16] [h] | Tmax [2, 17] [h] | further results
O=C(O)/C=C/c1ccc(O)c(O)c1 [Caffeic acid] | 2.95 | 6.27 | −2.07 | 5.38 | −2.45 | 2.52 | 3.39 | −12.26 | 0.41 | 12.71 | 3.68 | 11.31 | 31.7 ± 12 | 44.4 ± 30.2 | 10.2 | 4.65 ± 0.38 | 5.61 ± 2.5 | 10.7 ± 10.2 | 0.61 ± 0.68 | > 0.47 | AUC(0-t) [2, 15]: 37.2 ± 11.5 ng·h/mL; AUC(0-inf) [2, 15]: 40.5 ± 18.6 ng·h/mL; CL/F [2, 15]: 5.67 mL/min/kg; Cmax [2, 15]: 5.78 ± 0.23 ng/mL; MRT last [2, 15]: 5.78 ± 2.57 h; MRT inf [2, 15]: 7.21 ± 5.95 h; half-life ([2]; T1/2, FS-C: normal (blank) rats, oral FS 100 mg kg^−1, n = 6): 3.62 ± 4.88 h; Tmax [2, 15]: 0.72 ± 0.31 h; Cmax in FT compared with FS ([2]; normal group, p < 0.01, 0.05): significantly lower; Cmax after modeling compared with control group ([2]; oral administration of FS): decreased; AUC0-t after modeling compared with control group ([2]; oral administration of FT): increased
C[C@@H]1O[C@@H](OC[C@H]2O[C@@H](Oc3c(-c4ccc(O)c(O)c4)oc4cc(O)cc(O)c4c3=O)[C@H](O)[C@@H](O)[C@@H]2O)[C@H](O)[C@H](O)[C@H]1O [Rutin] | 0.42 | 3.07 | 7.93 | 11.51 | −6.74 | 0.45 | −1.16 | 7.31 | −5.30 | 4.10 | −8.01 | −5.39 | 77.9 ± 11.9 | 116 ± 83.4 | 342 | 5.77 ± 0.62 | 7.51 ± 0.81 | 15.4 ± 18.6 | 1.06 ± 1.47 | > 0.47 | half-life ([2]; T1/2, FT-C: normal (blank) rats, oral FT 100 mg kg^−1, n = 6): 7.39 ± 14.3 h

Reference: publication PMC11108815 (Heliyon, 2024)
